Two substances from patent US8961927B2, “Agents for magnetic imaging method” (Bracco Imaging S.p.A., priority 2002, dated 2015) can be followed below.

Assay type in all cases: cell-based
Series [1] relates to human hepatoma cells HepG2. Briefly: Differential uptake in hepatocytes and hepatoma cell lines HepG2, EBSS without glucose, compound of Example 3. As to conditions: substrate 5.1 mM, time course, FIG. 2. The protocol: The cells were cultured as in Example 12 above. The uptake experiments were performed in 5 ml EBSS without glucose to avoid competition between this compound and the test compound.
The substrate concentration was 5.1 mM and a time course analysis was done.

Series [2] has as its system panel of cancer cell lines. Nature of the series: Uptake in a panel of cancer cell lines compared with healthy hepatocytes, compound of Example 3. As to conditions: substrate 5.1 mM; after 2 hours; FIG. 3. The protocol:
The substrate concentration was 5.1 mM and the uptake was measured after 2 hours from the administration of the test compound.

In another series the test system is human hepatoma cells HTC. Nature of the series: Differential uptake in rat hepatocytes and human hepatoma cells HTC, time course. As to conditions: substrate 1.3 mM, 37° C. in EBSS. The protocol: This experiment has been carried out as follows:
Rat hepatocytes were cultured in M199 medium supplemented with 2 mg/ml bovine serum albumin (BSA), 3.6 mg/ml Hepes, 100 U/ml penicillin, 100 U/μg streptomycin, and 10 nmol/insulin; HTC cells were cultured in RPMI 1640 medium supplemented with 10% foetal bovine serum, 100 U/ml penicillin and 100 U/μg streptomycin.
The uptake experiments were performed in 5 ml EBSS, Earl's Balanced Salt Solution, (CaCl2 0.266 g/l; KCl 0.4 g/l; NaCl 6.8 g/l; glucose 1 g/l; MgSO4 0.204 g/l; NaH2PO4 0.144 g/l; NaHCO3 2.2 g/l).
[…] The substrate concentration was for both cell lines 1.3 mM.

For the substance “Gadolinium Complex of 3,6,9-triaza-3,6,9-tricarboxymethylundecanoic acid bis-glucopyranosylamide [Example 3]”, in series [1], the “uptake in human hepatoma cells HepG2 compared with hepatocyte” value was “higher uptake”. Also, the “uptake of Gd in cancer cell lines compared with healthy hepatocytes” value in series [2] is listed as “increased in all the cancer cell lines”.

For the substance “Gadolinium Complex of [4-(1,6,10-triazaundecan)-phenyl-aminocarbonylmethyl]-1,4,7,10-tetraazacyclododecan-4,7,10-triacetic acid [Example 11]”, the “uptake by the human hepatoma cells HTC relative to the one in hepatocytes” value in the series with human hepatoma cells HTC (after 0.5 hour) is “⅓”; in the series with human hepatoma cells HTC (after six hours), “more than 4 times”; with human hepatoma cells HTC (at 2 hours), “more than 3 times”.
